Key:
[1] = biological target: HSA (Homo sapiens, UniProt P02768); details: standard ligands immobilised on the array; protein not named, HSA per Example 2 / Abb. 2
From the text: (§1) Wird SPR als Detektionsmethode eingesetzt, ist es vorteilhaft, zunächst eine Messung des Microarrays ohne Lösung (Luftmessung) durchzuführen und danach eine Messung des Microarrays mit der Pufferlösung durchzuführen, in der anschließend das ADME relevante Biomolekül gelöst wird (Puffermessung). Anschliessend wird die Pufferlösung gegen eine Lösung des ADME relevanten Biomoleküls in demselben Puffer ausgetauscht und nochmals gemessen (Proteinmessung). Die Puffermessungen und die Proteinmessungen werden mittels der Luftmessung normiert und anschließend wird die Differenz zwischen den beiden Minima der Proteinmessung und der Puffermessung ermittelt.
(§2) Die so ermittelte Verschiebung (in nm) zwischen den beiden (ggf. normierten) Messungen ist ein Maß für die Bindungsstärke zwischen den immobilisierten Liganden und dem ADME relevanten Biomolekül (s. Beispiel 1).
Anschließend wurde der Chip je dreifach in 1. Methanol/1%TFA, 2. H2O/0,1% TFA und 3. H2O/0,02M HOAc gewaschen sowie unter Stickstoffstrom getrocknet.
Alle Verbindungen weisen eine Carboxy-Funktionalität auf, die mit einem Amin umgesetzt wurden, das endständig eine Thiolgruppe zur Anbindung an die Maleimid-Kopfgruppe des Ankers trägt.
Die Wirkstoffvorstufen, die so auf die Oberfläche gebracht werden, sind in einer 40 µM Lösung aus 0,2 M Phosphatpuffer (Pi), 5 mM EDTA und 20% (v/v) EG, pH 7.0, gelöst. Das Pinning Tool setzt ca. 10 nl pro Spot ab, so daß in jedem Spot ein hoher Überschuß des Wirkstoffvorstufen-Tag Konjugates gegenüber der oberflächengebundenen Maleimid-Gruppe gewährleistet wird und somit eine vollständige Belegung der Maleimid-Gruppen erreicht werden kann. In den freien Bereichen wurden die Maleimid-Gruppen anschließend durch Inkubation des Chips in 0,2 M Pi, pH 7.0, 10mM Mesh für 30 min abgesättigt. Danach wurde je dreimal mit 1. H2O/0,02M HOAc, 2. MeOH/H2O und 3. 2-Propanol gewaschen sowie unter Stickstoffstrom getrocknet.
Die Verschiebung der Wellenlänge wurde nach 120 min aufgezeichnet. Durch die eindeutige Zuordnung der (x,y)-Koordinate zu einer bestimmten Verbindung ist diese eindeutig identifizierbar. Wirkstoffvorstufen mit hohen Verschiebungswerten sind kritisch im Hinblick auf die weitere Wirkstoffentwicklung.
Das Festphasenscreening wurde durchgeführt wie in Beispiel 1 beschrieben.

[2] = biological target: CYP3A4 (Homo sapiens, UniProt P08684); details: standard ligands immobilised on the array; CYP3A4 per Example 3 / Abb. 3
CYP3A4, sequence (P08684 whole entry): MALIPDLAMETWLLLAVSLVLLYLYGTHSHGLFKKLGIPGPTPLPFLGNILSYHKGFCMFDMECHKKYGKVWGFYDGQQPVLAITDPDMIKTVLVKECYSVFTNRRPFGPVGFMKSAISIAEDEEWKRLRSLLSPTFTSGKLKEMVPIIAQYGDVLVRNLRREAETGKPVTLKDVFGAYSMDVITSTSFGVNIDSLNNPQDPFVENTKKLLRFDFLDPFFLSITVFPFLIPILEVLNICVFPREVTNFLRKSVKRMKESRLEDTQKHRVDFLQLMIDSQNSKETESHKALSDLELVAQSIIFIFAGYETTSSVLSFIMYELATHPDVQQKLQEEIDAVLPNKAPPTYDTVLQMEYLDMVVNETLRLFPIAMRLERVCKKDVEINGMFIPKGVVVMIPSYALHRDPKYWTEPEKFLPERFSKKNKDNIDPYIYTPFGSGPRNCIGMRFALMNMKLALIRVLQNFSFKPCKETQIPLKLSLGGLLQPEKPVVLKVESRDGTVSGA
From the text: as §1, §2
Die Verschiebung der Wellenlänge wurde nach 120 min aufgezeichnet. Durch die eindeutige Zuordnung der (x,y)-Koordinate zu einer bestimmten Verbindung ist diese eindeutig identifizierbar.
3 gezeigten Standardliganden und deren Festphasenscreening gegen CYP3A4 eine Klassifizierung in sehr schwach (<1,6 nm), schwach (1,6-3,2 nm), mittel (3,2-4,8 nm), stark (4,8-6,4 nm) und sehr stark (>6,4 nm) durchgeführt. Anhand der bekannten Metabolismuseigenschaften der Standardliganden ist eine Zuordnung dieser ADME Eigenschaft für nicht bekannte Wirkstoffvorstufen möglich.

HSA, sequence (P02768 25-609): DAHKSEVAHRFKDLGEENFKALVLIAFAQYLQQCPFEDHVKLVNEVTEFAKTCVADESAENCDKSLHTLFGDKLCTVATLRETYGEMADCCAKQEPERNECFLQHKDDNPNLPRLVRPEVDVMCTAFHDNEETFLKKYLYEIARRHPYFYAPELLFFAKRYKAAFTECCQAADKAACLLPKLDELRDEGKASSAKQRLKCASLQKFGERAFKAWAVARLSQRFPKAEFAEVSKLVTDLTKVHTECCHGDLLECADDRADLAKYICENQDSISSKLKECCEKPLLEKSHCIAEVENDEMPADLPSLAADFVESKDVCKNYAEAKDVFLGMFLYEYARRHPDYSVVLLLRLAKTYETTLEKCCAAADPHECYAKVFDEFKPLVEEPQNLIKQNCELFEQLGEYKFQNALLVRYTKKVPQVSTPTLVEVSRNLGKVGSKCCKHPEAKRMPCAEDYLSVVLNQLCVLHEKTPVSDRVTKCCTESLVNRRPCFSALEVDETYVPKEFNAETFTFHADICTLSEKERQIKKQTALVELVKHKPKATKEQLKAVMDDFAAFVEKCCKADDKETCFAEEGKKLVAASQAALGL

SMILES | Klassifizierung der Standardliganden für die Bestimmung von Distributionsparametern [1] | Klassifizierung der Standardliganden für die Bestimmung von Metabolismusparametern [2]
C=C[C@H]1C[N@@]2CC[C@H]1C[C@H]2[C@H](O)c1ccnc2ccc(OC)cc12 [Chinin] | schwach (schwach (0,7-1,4 nm)) | 
CNCCC=C1c2ccccc2CCc2ccccc21 [Nortriptylin] | stark (stark (2,1-2,8 nm)) | schwach (schwach (1,6-3,2 nm))
CNCCCN1c2ccccc2CCc2ccccc21 [Desimpramin] | mittel (mittel (1,4-2,1 nm)) | schwach (schwach (1,6-3,2 nm))
CC(=O)[C@H]1CC[C@H]2[C@@H]3CCC4=CC(=O)CC[C@]4(C)[C@H]3CC[C@]12C [Progesteron] |  | sehr stark (sehr stark (>6,4 nm))
C=C[C@H]1C[N@@]2CC[C@H]1C[C@@H]2[C@@H](O)c1ccnc2ccc(OC)cc12 [Chinidin] | schwach (schwach (0,7-1,4 nm)) | 

Reference: EP1439394A1, “Method and apparatus for etablishing ADME profiles in the early stage of develloppment of active substances” (priority 2002, dated 2004)
